Key:
bedstraw = test: Test B pre/postemergence bedstraw; type: in vivo, Galium aparine
In short: (§1)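 Test chemicals in a non-phytotoxic solvent mixture with surfactant were sprayed preemergence onto planted seeds and postemergence onto plants 2 to 18 cm tall (1- to 4-leaf stage). After twelve to sixteen days in a greenhouse, injury was visually rated against untreated controls from 0 (no effect) to 10 (complete control).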

blackgrass = test: Test B pre/postemergence blackgrass; type: in vivo, Alopecurus myosuroides
In short: as §1

surinam grass = test: Test B pre/postemergence surinam grass; type: in vivo, Brachiaria decumbens
In short: as §1

cocklebur = test: Test B pre/postemergence cocklebur; type: in vivo, Xanthium strumarium
In short: as §1

corn = test: Test B pre/postemergence corn; type: in vivo, Zea mays
In short: as §1

crabgrass = test: Test B pre/postemergence crabgrass; type: in vivo, Digitaria sanguinalis
In short: as §1

giant foxtail = test: Test B pre/postemergence giant foxtail; type: in vivo, Setaria faberii
In short: as §1

morningglory = test: Test B pre/postemergence morningglory; type: in vivo, Ipomoea hederacea
In short: as §1

pigweed = test: Test B pre/postemergence pigweed; type: in vivo, Amaranthus retroflexus
In short: as §1

rape = test: Test B pre/postemergence rape; type: in vivo, Brassica napus
In short: as §1

soybean = test: Test B pre/postemergence soybean; type: in vivo, Glycine max; settings: Preemergence
In short: as §1

sugar beet = test: Test B pre/postemergence sugar beet; type: in vivo, Beta vulgaris; settings: Preemergence
In short: as §1

velvetleaf = test: Test B pre/postemergence velvetleaf; type: in vivo, Abutilon theophrasti; settings: Preemergence
In short: as §1

wheat = test: Test B pre/postemergence wheat; type: in vivo, Triticum aestivum; settings: Preemergence
In short: as §1

wild oat = test: Test B pre/postemergence wild oat; type: in vivo, Avena fatua; settings: Preemergence
In short: as §1

purple nutsedge = test: Test B pre/postemergence purple nutsedge; type: in vivo, Cyperus rotundus
In short: as §1

rice = test: Test B flood test rice; type: in vivo, Oryza sativa
In short: (§2)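 Read-out is a visual response score from 0 (no effect) to 10 (complete control), assigned by comparison with untreated controls. Treatment was applied at the 2-leaf stage, and plants stayed in the greenhouse for twelve to sixteen days before scoring.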

smallflower flatsedge = test: Test B flood test smallflower flatsedge; type: in vivo, Cyperus difformis
In short: as §2

duck salad = test: Test B flood test duck salad; type: in vivo, Heteranthera limosa
In short: as §2

bamyardgrass = test: Test B flood test barnyardgrass; type: in vivo, Echinochloa crus-galli
In short: as §2

[1] = Preemergence, Rate 31 g/ha, visual rating, scale 0 to 10 (0 no effect, 10 complete control)
[2] = Preemergence, Rate 62 g/ha, scale of 0 to 10 where 0 is no effect and 10 is complete control
[3] = Preemergence, Rate 250 g/ha, scale of 0 to 10 where 0 is no effect and 10 is complete control
[4] = Rate 31 g/ha, Postemergence, scale 0 to 10
[5] = Rate 62 g/ha, Postemergence, scale of 0 to 10 where 0 is no effect and 10 is complete control
[6] = Rate 125 g/ha, Postemergence, scale 0 to 10
[7] = Rate 125 g/ha, Preemergence, scale of 0 to 10 where 0 is no effect and 10 is complete control
[8] = Rate 31 g/ha, visual rating, scale 0 to 10 (0 no effect, 10 complete control)
[9] = Rate 62 g/ha, scale of 0 to 10 where 0 is no effect and 10 is complete control
[10] = Rate 250 g/ha, scale of 0 to 10 where 0 is no effect and 10 is complete control
[11] = Rate 125 g/ha, scale of 0 to 10 where 0 is no effect and 10 is complete control
[12] = Rate 62 g/ha, headed Pre-emergence (flood test species), scale 0 to 10 (0 no effect, 10 complete control)
[13] = Rate 125 g/ha, Pre-emergence, flood test species, scale 0 to 10 where 0 is no effect and 10 is complete control
[14] = Rate 250 g/ha, Pre-emergence, flood-test species, scale 0 to 10, 0 is no effect, 10 is complete control
[15] = Rate 500 g/ha, Pre-emergence, flood test species, scale 0 to 10 (0 no effect, 10 complete control)

## CCN(CC)C(=O)Cn1c(=O)on(C(=O)N(c2ccc(F)cc2)C(C)C)c1=O [Compound 264]
bedstraw; [1]
  Bedstraw plant response rating: 0
bedstraw; [2]
  Bedstraw plant response rating: 0
bedstraw; [3]
  Bedstraw plant response rating: 0
bedstraw; [4]
  Bedstraw plant response rating: 0
bedstraw; [5]
  Bedstraw plant response rating: 0
bedstraw; [6]
  Bedstraw plant response rating: 6
bedstraw; [7]
  Bedstraw plant response rating: 0
bedstraw; Rate 250 g/ha, Postemergence
  Plant response rating (0 to 10; 0 is no effect, 10 is complete control), Bedstraw: 6
blackgrass; [1]
  Blackgrass plant response rating: 0
blackgrass; [2]
  Blackgrass plant response rating: 0
blackgrass; [3]
  Blackgrass plant response rating: 4
blackgrass; [4]
  Blackgrass plant response rating: 0
blackgrass; [5]
  Blackgrass plant response rating: 2
blackgrass; [6]
  Blackgrass plant response rating: 2
blackgrass; [7]
  Blackgrass plant response rating: 0
blackgrass; Rate 250 g/ha, Postemergence
  Plant response rating (0 to 10; 0 is no effect, 10 is complete control), Blackgrass: 3
Surinam grass; [1]
  B. signalgrass plant response rating: 0
Surinam grass; [2]
  B. signalgrass plant response rating: 0
Surinam grass; [3]
  B. signalgrass plant response rating: 5
Surinam grass; [4]
  B. signalgrass plant response rating: 0
Surinam grass; [5]
  B. signalgrass plant response rating: 0
Surinam grass; Rate 125 g/ha, Postemergence, scale 0 (no effect) to 10 (complete control)
  B. signalgrass plant response rating: 0
Surinam grass; [7]
  B. signalgrass plant response rating: 0
Surinam grass; Rate 250 g/ha, Postemergence
  Plant response rating (0 to 10; 0 is no effect, 10 is complete control), B. signalgrass: 0
cocklebur; [1]
  Cocklebur plant response rating: 0
cocklebur; [2]
  Cocklebur plant response rating: 0
cocklebur; [3]
  Cocklebur plant response rating: 0
cocklebur; [4]
  Cocklebur plant response rating: 0
cocklebur; [5]
  Cocklebur plant response rating: 0
cocklebur; [6]
  Cocklebur plant response rating: 0
cocklebur; [7]
  Cocklebur plant response rating: 0
cocklebur; Rate 250 g/ha, Postemergence
  Plant response rating (0 to 10; 0 is no effect, 10 is complete control), Cocklebur: 0
corn; [1]
  Corn plant response rating: 0
corn; [2]
  Corn plant response rating: 0
corn; [3]
  Corn plant response rating: 0
corn; [4]
  Corn plant response rating: 0
corn; [5]
  Corn plant response rating: 0
corn; [6]
  Corn plant response rating: 0
corn; [7]
  Corn plant response rating: 0
corn; Rate 250 g/ha, Postemergence
  Plant response rating (0 to 10; 0 is no effect, 10 is complete control), Corn: 0
crabgrass; [1]
  Crabgrass plant response rating: 0
crabgrass; [2]
  Crabgrass plant response rating: 0
crabgrass; [3]
  Crabgrass plant response rating: 3
crabgrass; [4]
  Crabgrass plant response rating: 0
crabgrass; [7]
  Crabgrass plant response rating: 2
crabgrass; Rate 250 g/ha, Postemergence
  Plant response rating (0 to 10; 0 is no effect, 10 is complete control), Crabgrass: 0
Giant foxtail; [1]
  Giant foxtail plant response rating: 0
Giant foxtail; [2]
  Giant foxtail plant response rating: 2
Giant foxtail; [3]
  Giant foxtail plant response rating: 7
Giant foxtail; [4]
  Giant foxtail plant response rating: 0
Giant foxtail; [7]
  Giant foxtail plant response rating: 7
Giant foxtail; Rate 250 g/ha, Postemergence
  Plant response rating (0 to 10; 0 is no effect, 10 is complete control), Giant foxtail: 0
morningglory; [1]
  Morningglory plant response rating: 0
morningglory; [2]
  Morningglory plant response rating: 0
morningglory; [3]
  Morningglory plant response rating: 0
morningglory; [4]
  Morningglory plant response rating: 6
morningglory; [7]
  Morningglory plant response rating: 0
morningglory; Rate 250 g/ha, Postemergence
  Plant response rating (0 to 10; 0 is no effect, 10 is complete control), Morningglory: 10
pigweed; [1]
  Redroot pigweed plant response rating: 0
pigweed; [2]
  Redroot pigweed plant response rating: 0
pigweed; [3]
  Redroot pigweed plant response rating: 0
pigweed; [4]
  Redroot pigweed plant response rating: 0
pigweed; [7]
  Redroot pigweed plant response rating: 0
pigweed; Rate 250 g/ha, Postemergence
  Plant response rating (0 to 10; 0 is no effect, 10 is complete control), Redroot pigweed: 0
rape; [1]
  Rape plant response rating: 0
rape; [2]
  Rape plant response rating: 0
rape; [3]
  Rape plant response rating: 0
rape; [4]
  Rape plant response rating: 0
rape; [7]
  Rape plant response rating: 0
rape; Rate 250 g/ha, Postemergence
  Plant response rating (0 to 10; 0 is no effect, 10 is complete control), Rape: 0
soybean; [8]
  Soybean plant response rating: 0
soybean; [9]
  Soybean plant response rating: 0
soybean; [10]
  Soybean plant response rating: 3
soybean; [11]
  Soybean plant response rating: 0
Sugar beet; [8]
  Sugarbeets plant response rating: 0
Sugar beet; [9]
  Sugarbeets plant response rating: 0
Sugar beet; [10]
  Sugarbeets plant response rating: 1
Sugar beet; [11]
  Sugarbeets plant response rating: 0
velvetleaf; [8]
  Velvetleaf plant response rating: 0
velvetleaf; [9]
  Velvetleaf plant response rating: 0
velvetleaf; [10]
  Velvetleaf plant response rating: 0
velvetleaf; [11]
  Velvetleaf plant response rating: 0
wheat; [8]
  Wheat plant response rating: 0
wheat; [9]
  Wheat plant response rating: 0
wheat; [10]
  Wheat plant response rating: 2
wheat; [11]
  Wheat plant response rating: 0
Wild oat; [8]
  Wild oats plant response rating: 0
Wild oat; [9]
  Wild oats plant response rating: 2
Wild oat; [10]
  Wild oats plant response rating: 5
Wild oat; [11]
  Wild oats plant response rating: 4
Purple nutsedge; [1]
  Nutsedge plant response rating: 0
Purple nutsedge; [3]
  Nutsedge plant response rating: 0
Purple nutsedge; [4]
  Nutsedge plant response rating: 0
Purple nutsedge; Rate 250 g/ha, Postemergence
  Plant response rating (0 to 10; 0 is no effect, 10 is complete control), Nutsedge: 0
rice; [12]
  Rice plant response rating: 0
rice; [13]
  Rice plant response rating: 0
rice; [14]
  Rice plant response rating: 0
rice; [15]
  Rice plant response rating: 1
Smallflower flatsedge; [12]
  S. Flatsedge plant response rating: 0
Smallflower flatsedge; [13]
  S. Flatsedge plant response rating: 0
Smallflower flatsedge; [14]
  S. Flatsedge plant response rating: 0
Smallflower flatsedge; [15]
  S. Flatsedge plant response rating: 0
Duck salad; [12]
  Ducksalad plant response rating: 0
Duck salad; [13]
  Ducksalad plant response rating: 0
Duck salad; [14]
  Ducksalad plant response rating: 0
Duck salad; [15]
  Ducksalad plant response rating: 0
bamyardgrass; [12]
  Barnyardgrass plant response rating: 0
bamyardgrass; [13]
  Barnyardgrass plant response rating: 0
bamyardgrass; [14]
  Barnyardgrass plant response rating: 0
bamyardgrass; [15]
  Barnyardgrass plant response rating: 0

Reference: patent publication US6737383B1, “Herbicidal oxadiazolidines” (priority 1999, dated 2004)
